Reference: PMC9954146, “Anti-Leukaemic Activity of Rilpivirine Is Mediated by Aurora A Kinase Inhibition” (Cancers, 2023)

Tests used:
K-562 cells = experiment: Cell cycle analysis (PI, flow cytometry); format: cell-based, human; conditions: 20 μM, 24 h
Procedure: (§1) To determine the effect of rilpivirine on cell-cycle distribution a flow cytometry-based analysis was performed after staining the untreated and treated cells with propidium iodide (PI) solution [22]. Briefly, 6 × 10^4 cells/well were seeded in 3 mL of medium per well in 6-well plates. After overnight incubation at 37 °C in 5% CO2, the cells were incubated with the test compounds for specified time points. The medium-containing cells were then taken out from the wells and transferred to FACS tubes. Cells were then pelleted by centrifugation at 300 g for 5 min. Afterward, cells were fixed by using 70% (v/v) ice-cold ethanol for 15 min and then again pelleted by centrifugation (300 g for 5 min). Finally, the cells were incubated with 200 µL of PI staining solution (50 μg/mL PI, 0.1% sodium citrate, 0.1 mg/mL RNase A, and 0.1% Triton X-100) for 1.5 h at room temperature in the dark. After the incubation period, the cells were analysed using a CytoFLEX flow cytometer (Beckman Coulter Inc., Brea, CA, USA). CytExpert software version 2.1 was used for data analysis and graph preparation.

U-937 cells = experiment: Cell cycle analysis (PI, flow cytometry); format: cell-based, human; conditions: 20 μM, 24 h
Procedure: as §1

KG1 cells = experiment: Cell cycle analysis (PI, flow cytometry); format: cell-based, human; conditions: 10 µM or 20 µM, 24 h
Procedure: as §1

NB4 cells = experiment: Cell cycle analysis (PI, flow cytometry); format: cell-based, human; conditions: 20 μM, 24 h
Procedure: as §1

HL-60 cells = experiment: Cell cycle analysis (PI, flow cytometry); format: cell-based, human; conditions: for G2-M cells: 24 h
Procedure: as §1

JAK2(h) = target: T1, JAK2(h) (Homo sapiens, UniProt O60674); experiment: Kinase panel; format: biochemical; conditions: read-out: % Residual Activity
T1 construct: purchased Eurofins (KinaseProfiler)
T1 sequence (O60674 whole entry): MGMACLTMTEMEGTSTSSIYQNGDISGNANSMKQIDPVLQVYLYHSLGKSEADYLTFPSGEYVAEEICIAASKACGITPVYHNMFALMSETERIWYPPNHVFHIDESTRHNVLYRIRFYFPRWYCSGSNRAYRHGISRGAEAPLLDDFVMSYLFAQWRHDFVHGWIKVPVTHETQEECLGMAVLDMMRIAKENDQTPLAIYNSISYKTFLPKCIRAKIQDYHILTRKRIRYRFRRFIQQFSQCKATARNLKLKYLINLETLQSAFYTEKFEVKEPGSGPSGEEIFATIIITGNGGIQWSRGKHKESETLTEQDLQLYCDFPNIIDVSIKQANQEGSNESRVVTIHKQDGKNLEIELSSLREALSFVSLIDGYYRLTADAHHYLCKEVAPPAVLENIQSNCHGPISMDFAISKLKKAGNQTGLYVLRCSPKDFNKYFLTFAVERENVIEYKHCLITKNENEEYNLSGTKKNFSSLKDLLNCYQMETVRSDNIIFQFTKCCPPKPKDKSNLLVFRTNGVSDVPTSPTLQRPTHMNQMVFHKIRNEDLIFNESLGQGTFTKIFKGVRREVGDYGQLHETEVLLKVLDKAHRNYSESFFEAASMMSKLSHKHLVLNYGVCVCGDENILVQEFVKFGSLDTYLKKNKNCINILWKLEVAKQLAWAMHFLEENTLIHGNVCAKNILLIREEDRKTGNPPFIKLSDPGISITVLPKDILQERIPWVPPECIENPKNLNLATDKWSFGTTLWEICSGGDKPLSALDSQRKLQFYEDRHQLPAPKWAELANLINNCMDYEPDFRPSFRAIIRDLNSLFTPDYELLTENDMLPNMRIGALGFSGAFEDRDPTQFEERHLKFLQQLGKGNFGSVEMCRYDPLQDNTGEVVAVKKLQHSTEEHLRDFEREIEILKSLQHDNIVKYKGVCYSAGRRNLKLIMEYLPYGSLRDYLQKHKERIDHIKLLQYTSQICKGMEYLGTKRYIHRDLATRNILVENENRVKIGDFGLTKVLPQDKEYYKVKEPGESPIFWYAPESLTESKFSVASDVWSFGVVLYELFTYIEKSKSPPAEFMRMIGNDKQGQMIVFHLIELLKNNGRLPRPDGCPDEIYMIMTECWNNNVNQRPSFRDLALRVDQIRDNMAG
Procedure, shortened: (§2)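 Selectivity panel (kinome-wide), rilpivirine as test compound. Readout: radiolabel incorporation. ATP = Km of the respective kinase. Ki calculated from IC50 (Cheng–Prusoff).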

Pyk2(h) = target: T2, Pyk2(h) (Homo sapiens, UniProt Q14289); experiment: Kinase panel; format: biochemical; conditions: read-out: % Residual Activity
T2 construct: purchased Eurofins (KinaseProfiler)
Procedure, shortened: as §2

TSSK2(h) = target: T3, TSSK2(h) (Homo sapiens, UniProt Q96PF2); experiment: Kinase panel; format: biochemical; conditions: read-out: % Residual Activity
T3 construct: purchased Eurofins (KinaseProfiler)
T3 sequence (Q96PF2 whole entry): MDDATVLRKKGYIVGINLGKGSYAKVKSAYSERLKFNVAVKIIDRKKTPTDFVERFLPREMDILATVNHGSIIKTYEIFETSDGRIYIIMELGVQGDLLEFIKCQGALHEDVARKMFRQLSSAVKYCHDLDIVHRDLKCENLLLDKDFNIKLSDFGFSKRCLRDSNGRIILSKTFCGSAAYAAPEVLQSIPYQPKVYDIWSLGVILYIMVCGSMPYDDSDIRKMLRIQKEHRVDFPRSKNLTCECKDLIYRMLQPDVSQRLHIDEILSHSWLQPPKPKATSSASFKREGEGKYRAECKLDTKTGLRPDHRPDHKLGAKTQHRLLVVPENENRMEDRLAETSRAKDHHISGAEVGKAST
Procedure, shortened: as §2

ZAK(h) = target: T4, ZAK(h) (Homo sapiens, UniProt Q9NYL2); experiment: Kinase panel; format: biochemical; conditions: read-out: % Residual Activity
T4 construct: purchased Eurofins (KinaseProfiler)
T4 sequence (Q9NYL2 whole entry): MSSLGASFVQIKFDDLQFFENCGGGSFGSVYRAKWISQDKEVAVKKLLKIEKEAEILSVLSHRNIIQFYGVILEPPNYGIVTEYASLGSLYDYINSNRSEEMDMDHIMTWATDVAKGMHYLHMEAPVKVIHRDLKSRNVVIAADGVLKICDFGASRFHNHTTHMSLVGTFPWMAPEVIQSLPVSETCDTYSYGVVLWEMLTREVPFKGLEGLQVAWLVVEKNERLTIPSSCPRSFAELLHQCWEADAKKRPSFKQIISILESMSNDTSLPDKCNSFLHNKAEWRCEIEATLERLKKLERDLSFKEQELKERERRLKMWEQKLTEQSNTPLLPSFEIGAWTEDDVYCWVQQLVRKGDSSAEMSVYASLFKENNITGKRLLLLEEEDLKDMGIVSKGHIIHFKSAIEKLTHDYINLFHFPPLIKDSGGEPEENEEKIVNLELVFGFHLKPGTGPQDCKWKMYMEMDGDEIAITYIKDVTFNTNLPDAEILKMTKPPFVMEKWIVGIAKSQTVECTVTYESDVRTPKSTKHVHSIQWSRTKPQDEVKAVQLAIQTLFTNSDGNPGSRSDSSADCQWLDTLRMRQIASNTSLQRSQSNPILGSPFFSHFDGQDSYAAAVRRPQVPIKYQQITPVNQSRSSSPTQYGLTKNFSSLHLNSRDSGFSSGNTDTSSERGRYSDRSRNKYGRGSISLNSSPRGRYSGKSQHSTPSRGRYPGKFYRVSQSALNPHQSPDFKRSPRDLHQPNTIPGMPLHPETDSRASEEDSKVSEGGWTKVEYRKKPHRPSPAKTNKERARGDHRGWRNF
Procedure, shortened: as §2

PDGFRα(V561D)(h) = target: T5, PDGFRα(V561D)(h) (Homo sapiens, UniProt P16234, V561D); experiment: Kinase panel; format: biochemical; conditions: read-out: % Residual Activity
T5 construct: purchased Eurofins (KinaseProfiler)
T5 sequence (P16234 24-1089 V561D): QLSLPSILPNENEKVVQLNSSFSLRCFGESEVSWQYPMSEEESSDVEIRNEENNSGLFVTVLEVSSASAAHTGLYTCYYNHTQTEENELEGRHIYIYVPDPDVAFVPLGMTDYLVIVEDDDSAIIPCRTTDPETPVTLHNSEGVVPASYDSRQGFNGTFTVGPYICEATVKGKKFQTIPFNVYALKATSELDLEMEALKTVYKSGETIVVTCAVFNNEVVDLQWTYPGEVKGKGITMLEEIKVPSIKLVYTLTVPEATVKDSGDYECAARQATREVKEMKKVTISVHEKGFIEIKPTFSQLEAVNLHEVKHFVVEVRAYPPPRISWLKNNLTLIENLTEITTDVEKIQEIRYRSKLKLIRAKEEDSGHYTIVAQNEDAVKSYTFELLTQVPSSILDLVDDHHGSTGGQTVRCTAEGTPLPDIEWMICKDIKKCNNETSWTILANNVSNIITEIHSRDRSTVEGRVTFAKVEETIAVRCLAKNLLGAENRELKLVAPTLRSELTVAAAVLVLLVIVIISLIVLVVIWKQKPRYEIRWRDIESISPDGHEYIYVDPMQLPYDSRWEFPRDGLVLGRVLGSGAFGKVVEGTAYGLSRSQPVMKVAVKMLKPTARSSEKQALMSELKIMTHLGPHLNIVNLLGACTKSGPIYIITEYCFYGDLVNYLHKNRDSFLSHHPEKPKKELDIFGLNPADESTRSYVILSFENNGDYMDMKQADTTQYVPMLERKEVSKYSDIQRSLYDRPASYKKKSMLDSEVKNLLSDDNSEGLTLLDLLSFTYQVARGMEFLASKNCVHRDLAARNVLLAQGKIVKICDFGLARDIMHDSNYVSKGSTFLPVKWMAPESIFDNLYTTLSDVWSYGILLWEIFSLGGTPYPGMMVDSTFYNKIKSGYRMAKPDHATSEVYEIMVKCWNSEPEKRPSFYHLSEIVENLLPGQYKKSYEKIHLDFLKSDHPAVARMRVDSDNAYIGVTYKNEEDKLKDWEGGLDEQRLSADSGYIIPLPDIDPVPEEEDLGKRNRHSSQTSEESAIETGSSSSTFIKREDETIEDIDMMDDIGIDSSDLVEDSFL
Procedure, shortened: as §2

CDKL2(h) = target: T6, CDKL2(h) (Homo sapiens, UniProt Q92772); experiment: Kinase panel; format: biochemical; conditions: read-out: % Residual Activity
T6 construct: purchased Eurofins (KinaseProfiler)
Procedure, shortened: as §2

Snk(h) = target: T7, Snk(h) (Homo sapiens, UniProt Q9NYY3); experiment: Kinase panel; format: biochemical; conditions: read-out: % Residual Activity
T7 construct: purchased Eurofins (KinaseProfiler)
T7 sequence (Q9NYY3 whole entry): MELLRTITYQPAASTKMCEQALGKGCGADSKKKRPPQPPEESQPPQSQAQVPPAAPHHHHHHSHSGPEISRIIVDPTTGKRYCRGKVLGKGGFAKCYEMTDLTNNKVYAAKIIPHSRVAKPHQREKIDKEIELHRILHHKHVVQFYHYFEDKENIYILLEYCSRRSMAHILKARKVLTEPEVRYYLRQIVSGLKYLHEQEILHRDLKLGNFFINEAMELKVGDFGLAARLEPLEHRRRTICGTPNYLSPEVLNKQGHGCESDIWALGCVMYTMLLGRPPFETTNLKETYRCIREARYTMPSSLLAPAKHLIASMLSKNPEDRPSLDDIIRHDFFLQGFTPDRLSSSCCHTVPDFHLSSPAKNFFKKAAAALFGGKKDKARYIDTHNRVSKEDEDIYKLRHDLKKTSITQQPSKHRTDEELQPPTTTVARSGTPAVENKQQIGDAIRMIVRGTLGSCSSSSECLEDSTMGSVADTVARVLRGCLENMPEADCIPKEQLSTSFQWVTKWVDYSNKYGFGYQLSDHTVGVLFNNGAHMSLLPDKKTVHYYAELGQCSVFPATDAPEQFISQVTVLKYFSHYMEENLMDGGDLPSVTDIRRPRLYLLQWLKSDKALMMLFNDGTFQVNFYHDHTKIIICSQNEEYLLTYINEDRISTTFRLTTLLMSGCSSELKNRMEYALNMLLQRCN
Procedure, shortened: as §2

DYRK3(h) = target: T8, DYRK3(h) (Homo sapiens, UniProt O43781); experiment: Kinase panel; format: biochemical; conditions: read-out: % Residual Activity
T8 construct: purchased Eurofins (KinaseProfiler)
T8 sequence (O43781 whole entry): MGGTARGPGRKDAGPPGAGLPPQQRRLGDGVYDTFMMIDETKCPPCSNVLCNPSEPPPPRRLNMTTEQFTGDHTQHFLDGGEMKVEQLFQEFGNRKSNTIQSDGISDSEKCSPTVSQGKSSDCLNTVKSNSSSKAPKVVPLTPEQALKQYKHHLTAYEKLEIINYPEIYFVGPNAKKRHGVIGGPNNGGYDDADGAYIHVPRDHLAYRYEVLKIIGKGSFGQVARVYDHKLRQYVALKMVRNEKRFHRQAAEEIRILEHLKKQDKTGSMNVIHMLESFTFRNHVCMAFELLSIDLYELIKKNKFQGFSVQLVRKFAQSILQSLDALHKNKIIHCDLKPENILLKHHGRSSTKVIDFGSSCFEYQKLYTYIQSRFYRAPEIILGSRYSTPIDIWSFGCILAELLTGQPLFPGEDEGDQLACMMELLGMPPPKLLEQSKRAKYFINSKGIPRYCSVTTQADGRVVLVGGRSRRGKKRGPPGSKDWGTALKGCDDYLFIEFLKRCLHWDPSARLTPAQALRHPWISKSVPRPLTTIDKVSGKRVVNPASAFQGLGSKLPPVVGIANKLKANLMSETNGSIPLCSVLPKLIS
Procedure, shortened: as §2

EGFR(L861Q)(h) = target: T9, EGFR(L861Q)(h) (Homo sapiens, UniProt P00533, L861Q); experiment: Kinase panel; format: biochemical; conditions: read-out: % Residual Activity
T9 construct: purchased Eurofins (KinaseProfiler)
Procedure, shortened: as §2

**Q.** Which results are given for `Cc1cc(/C=C/C#N)cc(C)c1Nc1ccnc(Nc2ccc(C#N)cc2)n1` [rilpivirine, (E)-4-((4-((4-(2-cyanoethenyl)-2,6-dimethylphenyl)amino)pyrimidin-2-yl)amino)benzonitrile]?
**A.** G2-M cells (K-562 cells): 46.23%; G2-M cells (U-937 cells): 36.61%; cell-cycle arrest (KG1 cells): induced G2/M cell-cycle arrest; G2-M cells (NB4 cells): 55.25%; G2-M cells (HL-60 cells; 5 μM): 31.15%; G2-M cells (HL-60 cells; 10 µM): 40.70%; time of maximum accumulation in the G2/M phase (HL-60 cells; 10 µM, time course): 16 h; G2-M cells (HL-60 cells; 20 μM): 46.32%; remaining activity at 1 µM (JAK2(h)): 72%; remaining activity at 1 µM (Pyk2(h)): 81%; remaining activity at 1 µM (TSSK2(h)): 91%; remaining activity at 1 µM (ZAK(h)): 99%; remaining activity at 1 µM (PDGFRα(V561D)(h)): 86%; remaining activity at 1 µM (CDKL2(h)): 100%; remaining activity at 1 µM (Snk(h)): 98%; remaining activity at 1 µM (DYRK3(h)): 84%; remaining activity at 1 µM (EGFR(L861Q)(h)): 35%
